Reference: patent US10814010B2, “FOXC2 inhibitor and methods of use thereof” (The Board of Regents of The University of Texas System, priority 2018, dated 2020)

Assays:
DU145 cells = assay: Transwell invasion assay, DU145; assay type: cell-based; details: DU145, 24 hours, vs DMSO
Procedure: Following determination of both inhibition of EMT and CSC properties, the inhibition of the migratory and invasive capabilities of both cell lines following MC-1-F2 treatment was examined through the use of a transwell invasion assay.
Matrigel invasion chambers (Corning) were allowed to come to room temperature and allowed to rehydrate for 2 hours in a cell incubator. Cells were treated 24 hours prior to assay and starved in 2% FBS in DMEM for 2 hours prior to assay. A cell suspension containing 5×10^4 cells/mL was prepared. Chemoattractant (DMEM+10% FBS) was added to the bottom of the wells. Using forceps, the inserts were transferred inside the wells and 0.5 mL of cell suspension was immediately added. The chambers were incubated for 22 hours in a humidified tissue culture incubator. After the 22 hours, the non-invading cells were removed by scrubbing the surface of the membrane. The cells were fixated with 4% formaldehyde solution for 2 minutes at room temperature. Followed by permeabilization of the membrane with 100% MeOH for 20 minutes at room temperature. The cells were stained with 0.5% crystal violet solution and several images of the wells were then taken and total number of cells counted for analysis.

[1] = molecular target: T1, DNA binding domain (DBD) of FOXC2 (Homo sapiens, UniProt Q99958); assay: ELISA-like binding assay, immobilized DNA binding domain of FOXC2; details: biotinylated compound
T1 construct: His6 (N, cleaved yes); MBP (N, cleaved yes); made in house; host or cells: E. coli BL21(DE3)-RIPL
T1 sequence (Q99958 60-163): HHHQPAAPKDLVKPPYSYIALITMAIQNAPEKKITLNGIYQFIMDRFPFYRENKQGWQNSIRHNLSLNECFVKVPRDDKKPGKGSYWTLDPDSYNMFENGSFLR
Procedure: (§1) The binding affinity of MC-1-F2 to full-length FOXC2 was determined using an ELISA-like binding assay. In this assay, varying concentrations of biotinylated MC-1-F2 or biotinylated MC-C (control; FIG. 12) were incubated in the wells with immobilized recombinant full-length FOXC2 or the DNA binding domain (DBD) of FOXC2 (FIG. 2A). After washing off unbound ligand, the wells were incubated with streptavidin-conjugated Qdot655, followed by fluorescence measurement of the wells using a plate reader. […] This is important for the specificity of MC-1-F2 to FOXC2 as several forkhead transcription factors share a very similar DNA-binding domain.
(§2) Clear bottom, black wall, 96 well plate (Corning) was coated with 1 μg/mL of full length FOXC2 or DNA binding domain (DBD) of FOXC2 protein in sensitizing buffer (0.621 g NaHCO3, 0.275 g Na2CO3 in 100 mL of water pH=9.5) overnight at 4° C. Wells were washed 3 times with 200 μL of wash buffer (lx PBS with 0.05% Tween-20). Wells were blocked with blocking buffer (1% BSA in 1×PBS with 0.05% Tween-20) for 1 hour at room temperature. 50 μL of serial dilutions of biotinylated compound in blocking buffer were added to each well and incubated for 1 hour at room temperature. Followed was the addition of […] of 20 nM of strepavidin-Qdot655 in blocking buffer for 1 hour at room temperature. […] Fluorescence was measured using a plate reader (Ex. 495, Em. 655).

full-length FOXC2 = molecular target: T2, full-length FOXC2 (Homo sapiens, UniProt Q99958); assay: ELISA-like binding assay, immobilized full-length FOXC2; details: biotinylated compound, immobilized recombinant full-length FOXC2, Qdot655 fluorescence
T2 construct: human FOXC2 protein (amino acid residues 1-501) with a C-terminal 6 histidine tag; made in house; host or cells: E. coli BL21(DE3)
T2 sequence (Q99958 1-501): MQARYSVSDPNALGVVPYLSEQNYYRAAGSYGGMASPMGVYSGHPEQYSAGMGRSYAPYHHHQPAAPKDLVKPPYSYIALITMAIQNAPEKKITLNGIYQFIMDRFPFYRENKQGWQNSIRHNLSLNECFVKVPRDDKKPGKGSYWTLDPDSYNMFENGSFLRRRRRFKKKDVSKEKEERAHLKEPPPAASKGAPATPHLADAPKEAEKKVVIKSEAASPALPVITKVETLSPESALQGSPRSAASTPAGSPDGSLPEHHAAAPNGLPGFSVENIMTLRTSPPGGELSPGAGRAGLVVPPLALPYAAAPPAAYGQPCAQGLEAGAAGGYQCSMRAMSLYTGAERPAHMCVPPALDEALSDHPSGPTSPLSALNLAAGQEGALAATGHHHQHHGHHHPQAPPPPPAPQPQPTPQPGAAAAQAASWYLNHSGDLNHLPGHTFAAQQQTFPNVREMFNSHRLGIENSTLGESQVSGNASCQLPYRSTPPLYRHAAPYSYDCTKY
Procedure: as §1, §2

PC3 cells = assay: Co-treatment MTT assay, PC3; details: constant ratio
FOXC2 = molecular target: T3, FOXC2 (Homo sapiens, UniProt Q99958); assay: Western blot of FOXC2 protein level and nuclear localization in MDA-MB-231; assay type: cell-based; details: MDA-MB-231, 20 μM
T3 construct: endogenous in cells; host or cells: MDA-MB-231
T3 sequence (Q99958 1-501): T2 sequence (Q99958 1-501)
Description: As a transcription factor, FOXC2 needs to localize into the nucleus to promote the transcription of target genes. Therefore, a small molecule that blocks nuclear localization of FOXC2 is expected to inhibit EMT. […] Putative kinases that phosphorylate FOXC2 have been proposed (Werden et al., 2016; Ivanov et al., 2013; Golden & Cantley, 2014). It is possible that MC-1-F2 disrupts the protein-protein interaction between FOXC2 and its kinase, resulting in the decease of FOXC2 nuclear localization. Investigation into the exact mechanism by which MC-1-F2 inhibits FOXC2 phosphorylation and nuclear localization is underway.
50 μg of total protein per sample was incubated with 4× loading buffer at 100° C. for 5 min. Protein samples were then loaded into a polyacrylamide gel and subjected to SDS-PAGE. Resolved proteins were then transferred by a wet transfer method to a PVDF membrane at 100 V for 1 hour using a BioRad Mini Trans-Blot Electrophoresis Transfer Cell. Upon the completion of wet transfer, the membrane was then blocked with 5% (w/v) fat-free milk in 1× Tris-buffered saline/0.1% (v/v) Tween-20 (TBS-T) for at least 1 hour. Then incubated with the respective primary antibodies diluted in 5% BSA in 1×TBST at 4° C. overnight. The following day exposed to 1:1000 dilution of anti-mouse or anti-rabbit HRP-conjugated secondary antibodies in 5% (w/v) fat-free milk in 1×TBS-T for 1 hour at room temperature. The probed proteins were then detected for chemiluminescent signal using SuperSignal Chemiluminescent Substrate (PIERCE). Pierce antibodies: B-actin, and all other antibodies used are from cell signaling. MG132 treatment was added to cells (0.5 μM) for 1-hour incubation prior to compound treatment, no more than 24 hours total exceeded during MG132 incubation.

## N=C(N)NCCCCNc1nc(Nc2ccc(Oc3ccccc3)cc2)nc(N2CCN(c3nc(N)nc(Nc4ccc(N5CCOCC5)cc4)n3)CC2)n1 [MC-1-F2]
DU145 cells
  invasiveness (transwell invasion): remarkable inhibition in invasiveness
[1]
  Kd: > 100 µM
full-length FOXC2
  Kd: 26 µM
PC3 cells
  combination index with docetaxel (CompuSyn): negative combination index
PC3 cells; 24 hours
  combination effect with docetaxel: synergistic effects
  combination effect with enzalutamide (CompuSyn): only additive effects
FOXC2; 24 hours, absence of MG132
  FOXC2 protein level: decrease in FOXC2 protein level
FOXC2; 24 hours, with 26S proteasome inhibitor MG132
  FOXC2 protein level in presence of MG132: prevented by incubating the cells with a 26S proteasome inhibitor, MG132
FOXC2; 48 hours, cytosolic and nuclear fractions
  nuclear localization of FOXC2: decrease in nuclear localization of FOXC2
